Patent US5840684A, “Glycopeptide antibiotic derivatives” (Eli Lilly and Company, priority 1995, dated 1998)
Converted amounts (≈) assume the structure as drawn.

Experiments:
[1] = test system: Staphylococcus aureus S13E; format: cell-based
Protocol: (§1) The MIC's were determined using a standard broth micro-dilution assay.

[2] = test system: Entercoccus faecium 180-1; experiment: broth micro-dilution MIC; format: cell-based
Protocol: as §1

Entercoccus faecium 276 = experiment: broth micro-dilution MIC; format: cell-based
Protocol: as §1

[3] = test system: Staphylococcus aureus 489; experiment: broth micro-dilution MIC; format: cell-based
Protocol: as §1

[4] = test system: Staphylococcus aureus SA1199A; experiment: broth micro-dilution MIC; format: cell-based
Protocol: as §1

[5] = test system: Staphylococcus aureus SA1199; experiment: broth micro-dilution MIC; format: cell-based
Protocol: as §1

[6] = test system: Staphylococcus aureus X400; experiment: broth micro-dilution MIC; format: cell-based
Protocol: as §1

[7] = test system: Staphylococcus aureus X778; experiment: broth micro-dilution MIC; format: cell-based
Protocol: as §1

[8] = test system: Streptococcus pyogenes C203; experiment: broth micro-dilution MIC; format: cell-based
Protocol: as §1

Entercoccus faecium 2041 = experiment: broth micro-dilution MIC; format: cell-based; conditions: Entercoccus faecium 2041
Protocol: (§2) The formula I compounds have in vitro and in vivo activity against Gram-positive pathogenic bacteria. The MIC's were determined using a standard broth micro-dilution assay.

[9] = test system: Enterococcus gallinarum 245; experiment: broth micro-dilution MIC; format: cell-based; conditions: Enterococcus gallinarum 245
Protocol: as §2

[10] = test system: Streptococcus pneumoniae P1; experiment: broth micro-dilution MIC; format: cell-based
Protocol: as §2

[11] = test system: vancomycin-resistant enterococci; experiment: broth micro-dilution, mean geometric MIC; format: cell-based, Enterococcus faecium and Enterococcus faecalis; conditions: enterococci, 24-hour incubation
[12] = test system: vancomycin-susceptible enterococci; experiment: broth micro-dilution, mean geometric MIC; format: cell-based, Enterococcus faecium and Enterococcus faecalis; conditions: enterococci, 24-hour incubation
[13] = test system: Staphylococcus aureus 446; experiment: broth micro-dilution MIC; format: cell-based
Protocol: as §1

Entercoccus faecium 180 = experiment: broth micro-dilution MIC; format: cell-based; conditions: Entercoccus faecium 180
Protocol: as §2

[14] = test system: Staphylococcus epidermidis 270; experiment: broth micro-dilution MIC; format: cell-based
Protocol: as §2

[15] = test system: Staphylococcus haemolyticus 105; experiment: broth micro-dilution MIC; format: cell-based
Protocol: as §2

[16] = test system: Staphylococcus haemolyticus 415; experiment: broth micro-dilution MIC; format: cell-based
Protocol: as §2

[17] = test system: Staphylococcus aureus SA1199B; format: cell-based
Protocol: as §1

[18] = test system: Staphylococcus aureus 447; experiment: broth micro-dilution MIC; format: cell-based
Protocol: as §1

CNC(CC(C)C)C(=O)NC1C(=O)NC(CC(N)=O)C(=O)NC2C(=O)NC3C(=O)NC(C(=O)NC(C(=O)O)c4cc(O)cc(O)c4-c4cc3ccc4O)C(OC3CC(C)(N)C(O)C(C)O3)c3ccc(c(Cl)c3)Oc3cc2cc(c3OC2OC(CO)C(O)C(O)C2OC2CC(C)(NCc3cccc4c([N+](=O)[O-])cccc34)C(O)C(C)O2)Oc2ccc(cc2Cl)C1O (stereo not shown) [Compound 25]
MIC [1]: ≤ 0.06 µg/mL | MIC [2]: ≤ 0.06 µg/mL | MIC (Entercoccus faecium 276): 0.25 µg/mL (≈ 0.141 µM) | MIC [3]: ≤ 0.06 µg/mL | MIC [4]: ≤ 0.06 µg/mL | MIC [5]: ≤ 0.06 µg/mL | MIC [6]: ≤ 0.06 µg/mL | MIC [7]: ≤ 0.06 µg/mL | MIC [8]: ≤ 0.06 µg/mL | MIC (Entercoccus faecium 2041): 0.25 µg/mL (≈ 0.141 µM) | MIC [9]: ≤ 0.06 µg/mL | MIC [10]: ≤ 0.06 µg/mL | mean geometric MIC, Vancomycin Resistant Strains [11]: 4.0 µg/mL | mean geometric MIC, Vancomycin Sensitive Strains [12]: 0.22 µg/mL

CNC(CC(C)C)C(=O)NC1C(=O)NC(CC(N)=O)C(=O)NC2C(=O)NC3C(=O)NC(C(=O)NC(C(=O)O)c4cc(O)cc(O)c4-c4cc3ccc4O)C(OC3CC(C)(N)C(O)C(C)O3)c3ccc(c(Cl)c3)Oc3cc2cc(c3OC2OC(CO)C(O)C(O)C2OC2CC(C)(NCCc3ccc(Oc4ccccc4)cc3)C(O)C(C)O2)Oc2ccc(cc2Cl)C1O (stereo not shown) [Compound 33]
MIC [1]: ≤ 0.06 µg/mL | MIC [2]: ≤ 0.06 µg/mL | MIC (Entercoccus faecium 276): ≤ 0.06 µg/mL | MIC [13]: 4 µg/mL (≈ 2.24 µM) | MIC [3]: ≤ 0.06 µg/mL | MIC [4]: ≤ 0.06 µg/mL | MIC [5]: 1 µg/mL (≈ 0.559 µM) | MIC [7]: 0.5 µg/mL (≈ 0.28 µM) | MIC (Entercoccus faecium 180): 2 µg/mL (≈ 1.12 µM) | MIC (Entercoccus faecium 2041): ≤ 0.06 µg/mL | MIC [14]: 2 µg/mL (≈ 1.12 µM) | MIC [15]: 2 µg/mL (≈ 1.12 µM) | MIC [16]: 8 µg/mL (≈ 4.47 µM) | mean geometric MIC, Vancomycin Resistant Strains [11]: 2.8 µg/mL | mean geometric MIC, Vancomycin Sensitive Strains [12]: 0.18 µg/mL

CNC(CC(C)C)C(=O)NC1C(=O)NC(CC(N)=O)C(=O)NC2C(=O)NC3C(=O)NC(C(=O)NC(C(=O)O)c4cc(O)cc(O)c4-c4cc3ccc4O)C(OC3CC(C)(N)C(O)C(C)O3)c3ccc(c(Cl)c3)Oc3cc2cc(c3OC2OC(CO)C(O)C(O)C2OC2CC(C)(NCCc3ccccc3OCc3ccccc3)C(O)C(C)O2)Oc2ccc(cc2Cl)C1O (stereo not shown) [Compound 59]
MIC [1]: 0.125 µg/mL (≈ 0.0693 µM) | MIC [17]: 0.5 µg/mL (≈ 0.277 µM) | MIC [2]: ≤ 0.06 µg/mL | MIC (Entercoccus faecium 276): 0.125 µg/mL (≈ 0.0693 µM) | MIC [13]: 0.5 µg/mL (≈ 0.277 µM) | MIC [18]: 1 µg/mL (≈ 0.555 µM) | MIC [3]: 0.125 µg/mL (≈ 0.0693 µM) | MIC [4]: ≤ 0.06 µg/mL | MIC [5]: 0.125 µg/mL (≈ 0.0693 µM) | MIC [7]: ≤ 0.06 µg/mL | MIC [8]: ≤ 0.06 µg/mL | MIC (Entercoccus faecium 180): 8 µg/mL (≈ 4.44 µM) | MIC (Entercoccus faecium 2041): 0.5 µg/mL (≈ 0.277 µM) | MIC [9]: 1 µg/mL (≈ 0.555 µM) | MIC [14]: 1 µg/mL (≈ 0.555 µM) | MIC [15]: 8 µg/mL (≈ 4.44 µM) | MIC [16]: 8 µg/mL (≈ 4.44 µM) | MIC [10]: ≤ 0.06 µg/mL | mean geometric MIC, Vancomycin Resistant Strains [11]: 51 µg/mL | mean geometric MIC, Vancomycin Sensitive Strains [12]: 0.42 µg/mL

CNC(CC(C)C)C(=O)NC1C(=O)NC(CC(N)=O)C(=O)NC2C(=O)NC3C(=O)NC(C(=O)NC(C(=O)O)c4cc(O)cc(O)c4-c4cc3ccc4O)C(OC3CC(C)(N)C(O)C(C)O3)c3ccc(c(Cl)c3)Oc3cc2cc(c3OC2OC(CO)C(O)C(O)C2OC2CC(C)(NCc3ccc(C)c(C)c3)C(O)C(C)O2)Oc2ccc(cc2Cl)C1O (stereo not shown) [Compound 76]
MIC [2]: ≤ 0.06 µg/mL | MIC (Entercoccus faecium 276): ≤ 0.06 µg/mL | MIC [18]: 0.5 µg/mL (≈ 0.292 µM) | MIC [3]: ≤ 0.06 µg/mL | MIC [5]: ≤ 0.06 µg/mL | MIC [8]: ≤ 0.06 µg/mL | MIC (Entercoccus faecium 180): 0.5 µg/mL (≈ 0.292 µM) | MIC (Entercoccus faecium 2041): ≤ 0.06 µg/mL | MIC [9]: 4 µg/mL (≈ 2.34 µM) | MIC [15]: 2 µg/mL (≈ 1.17 µM) | MIC [16]: 4 µg/mL (≈ 2.34 µM) | MIC [10]: ≤ 0.06 µg/mL | mean geometric MIC, Vancomycin Resistant Strains [11]: 8.0 µg/mL

CNC(CC(C)C)C(=O)NC1C(=O)NC(CC(N)=O)C(=O)NC2C(=O)NC3C(=O)NC(C(=O)NC(C(=O)O)c4cc(O)cc(O)c4-c4cc3ccc4O)C(OC3CC(C)(N)C(O)C(C)O3)c3ccc(c(Cl)c3)Oc3cc2cc(c3OC2OC(CO)C(O)C(O)C2OC2CC(C)(NCC3CCC(c4ccccc4)C3)C(O)C(C)O2)Oc2ccc(cc2Cl)C1O (stereo not shown) [Compound 140]
MIC [1]: ≤ 0.06 µg/mL | MIC [17]: ≤ 0.06 µg/mL | MIC [2]: ≤ 0.06 µg/mL | MIC (Entercoccus faecium 276): 0.5 µg/mL (≈ 0.286 µM) | MIC [3]: ≤ 0.06 µg/mL | MIC [4]: ≤ 0.06 µg/mL | MIC [5]: ≤ 0.06 µg/mL | MIC [6]: ≤ 0.06 µg/mL | MIC [8]: ≤ 0.06 µg/mL | MIC (Entercoccus faecium 180): 1 µg/mL (≈ 0.571 µM) | MIC (Entercoccus faecium 2041): ≤ 0.06 µg/mL | MIC [9]: 8 µg/mL (≈ 4.57 µM) | MIC [15]: 2 µg/mL (≈ 1.14 µM) | MIC [16]: 8 µg/mL (≈ 4.57 µM) | MIC [10]: ≤ 0.06 µg/mL | mean geometric MIC, Vancomycin Resistant Strains [11]: 6.7 µg/mL | mean geometric MIC, Vancomycin Sensitive Strains [12]: 0.19 µg/mL

CNC(CC(C)C)C(=O)NC1C(=O)NC(CC(N)=O)C(=O)NC2C(=O)NC3C(=O)NC(C(=O)NC(C(=O)O)c4cc(O)cc(O)c4-c4cc3ccc4O)C(OC3CC(C)(N)C(O)C(C)O3)c3ccc(c(Cl)c3)Oc3cc2cc(c3OC2OC(CO)C(O)C(O)C2OC2CC(C)(NCC3CCC(COCc4ccccc4)CC3)C(O)C(C)O2)Oc2ccc(cc2Cl)C1O (stereo not shown) [Compound 239]
MIC [1]: 0.5 µg/mL (≈ 0.276 µM) | MIC [17]: 0.5 µg/mL (≈ 0.276 µM) | MIC [2]: ≤ 0.06 µg/mL | MIC [13]: 1 µg/mL (≈ 0.553 µM) | MIC [18]: 0.5 µg/mL (≈ 0.276 µM) | MIC [3]: 0.5 µg/mL (≈ 0.276 µM) | MIC [4]: ≤ 0.06 µg/mL | MIC [5]: 0.5 µg/mL (≈ 0.276 µM) | MIC (Entercoccus faecium 180): ≤ 0.06 µg/mL | MIC (Entercoccus faecium 2041): ≤ 0.06 µg/mL | MIC [9]: 1 µg/mL (≈ 0.553 µM) | MIC [15]: 1 µg/mL (≈ 0.553 µM) | MIC [16]: 1 µg/mL (≈ 0.553 µM) | MIC [10]: ≤ 0.06 µg/mL | mean geometric MIC, Vancomycin Resistant Strains [11]: 2.8 µg/mL | mean geometric MIC, Vancomycin Sensitive Strains [12]: 0.095 µg/mL

CNC(CC(C)C)C(=O)NC1C(=O)NC(CC(N)=O)C(=O)NC2C(=O)NC3C(=O)NC(C(=O)NC(C(=O)O)c4cc(O)cc(O)c4-c4cc3ccc4O)C(OC3CC(C)(N)C(O)C(C)O3)c3ccc(c(Cl)c3)Oc3cc2cc(c3OC2OC(CO)C(O)C(O)C2OC2CC(C)(NCc3ccc(Oc4ccc(Cl)cc4)cc3)C(O)C(C)O2)Oc2ccc(cc2Cl)C1O (stereo not shown) [Compound 240]
MIC [1]: 0.5 µg/mL (≈ 0.276 µM) | MIC [2]: ≤ 0.06 µg/mL | MIC (Entercoccus faecium 276): 0.5 µg/mL (≈ 0.276 µM) | MIC [13]: 1 µg/mL (≈ 0.553 µM) | MIC [18]: 0.5 µg/mL (≈ 0.276 µM) | MIC [3]: 1 µg/mL (≈ 0.553 µM) | MIC [4]: ≤ 0.06 µg/mL | MIC [5]: 0.5 µg/mL (≈ 0.276 µM) | MIC [7]: 0.5 µg/mL (≈ 0.276 µM) | MIC (Entercoccus faecium 180): ≤ 0.06 µg/mL | MIC (Entercoccus faecium 2041): ≤ 0.06 µg/mL | MIC [9]: 2 µg/mL (≈ 1.11 µM) | MIC [15]: 1 µg/mL (≈ 0.553 µM) | MIC [16]: 2 µg/mL (≈ 1.11 µM) | MIC [10]: ≤ 0.06 µg/mL | mean geometric MIC, Vancomycin Resistant Strains [11]: 1.19 µg/mL | mean geometric MIC, Vancomycin Sensitive Strains [12]: 0.055 µg/mL
